Experiments:
[1] = molecular target: T1, Plant p-Hydroxyphenylpyruvate Dioxygenase (Arabidopsis enzyme overexpressed in E. coli) (Arabidopsis thaliana, UniProt P93836); test: 14CO2 release assay from 14C-p-hydroxyphenylpyruvate with overexpressed protein; assay type: biochemical
T1 construct: The first 11 cycles identified […]; initiator Met (ATG start codon put in front of Ser30 by oligos CAM32/CAM33) (N, cleaved yes); made in house; host or cells: E. coli BL21(DE3) carrying pE24CP1 (pET24c(+) backbone), IPTG-induced; cell extract
T1 sequence (P93836 30-445): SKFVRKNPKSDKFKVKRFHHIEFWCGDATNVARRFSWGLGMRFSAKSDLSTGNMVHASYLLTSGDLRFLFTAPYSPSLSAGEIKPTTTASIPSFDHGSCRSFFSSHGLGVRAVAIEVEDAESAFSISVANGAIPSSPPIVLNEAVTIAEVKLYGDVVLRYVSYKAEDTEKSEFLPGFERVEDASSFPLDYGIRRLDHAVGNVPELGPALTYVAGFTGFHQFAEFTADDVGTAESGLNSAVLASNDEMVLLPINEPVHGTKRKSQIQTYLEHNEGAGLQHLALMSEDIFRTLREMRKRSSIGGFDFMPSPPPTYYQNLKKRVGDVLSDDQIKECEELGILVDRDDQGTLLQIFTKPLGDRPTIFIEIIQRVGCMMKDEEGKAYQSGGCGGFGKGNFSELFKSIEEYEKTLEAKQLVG
Procedure: Cell cultures with different plasmid constructs were extracted as described above and assayed by measuring the formation of ^14Co2 from [1-^14C]-p-hydroxyphenylpyruvate or ^14CO2 and ^14C-homogentisate from [U-^14C]-p-hydroxyphenylpyruvate (Lindblad, B., (1971) Clin. Chim. Acta 34:113-121; and Lindstedt, S. and Odelhog, B., (1987) Methods in Enzymology 142:143-148). The labeled substrate was prepared from [1-^14C]-L-tyrosine (55 mCi/mmol; American Radiolabeled Chemicals, Inc., St. Louis, Mo.) or [U-^14C]-L-tyrosine (498 mCi/mmol; DuPont NEN, Boston, Mass.). […]
The assay was performed in 14 mL culture tubes capped with serum stoppers through which a polypropylene well containing 200 μL of 1 N KOH was suspended. […] Six mL of Formula-989 scintillation fluid (Packard Insturments, Meriden, Conn.) was added to the vials and the ^14C radioactivity was determined by scintillation counting.
The enzymatic activity of the overexpressed protein is inhibited by two herbicides known to inhibit plant p-hydroxyphenylpyruvate dioxygenase: Sulcotrione (2-(2-chloro-4-methanesulfonylbenzoyl)-1,3-cyclohexanedione); and Isoxaflutole (5-cyclopropylisoxazol-4-yl 2-mesyl-4-trifluoromethylphenyl ketone). […] The I50 values (concentration inhibiting the enzyme 50%) were calculated based on the percent inhibition observed over several concentrations of the inhibitor.

[2] = molecular target: T1, Plant p-Hydroxyphenylpyruvate Dioxygenase (Arabidopsis enzyme overexpressed in E. coli); test: continuous spectrophotometric enol borate-tautomerase assay with overexpressed protein; assay type: biochemical
Procedure: The overexpressed protein was also assayed spectrophotometrically at ambient temperature using the enol borate-tautomerase assay (Lin, E. C. C. et al., (1958) J. Biol. Chem. 233:668-673). The assay buffer contained 0.4 M borate (adjusted to pH 7.2 with 0.2 M sodium borate), 4 mM ascorbate, 2.5 mM EDTA, 40 μM p-hydroxyphenylpyruvate, and 0.5 units of tautomerase (Sigma T-6004) per 10 mL buffer. The reaction mix was used when the tautomerization of the substrate was complete (when absorbance at 308 nm had stabilized). The assay was initiated by adding 40 μL of the cell extracts to 960 μL of the assay buffer, and the reaction was followed by measuring the decrease in absorbance at 308 nm.
The enzymatic activity of the overexpressed protein is inhibited by two herbicides known to inhibit plant p-hydroxyphenylpyruvate dioxygenase: Sulcotrione (2-(2-chloro-4-methanesulfonylbenzoyl)-1,3-cyclohexanedione); and Isoxaflutole (5-cyclopropylisoxazol-4-yl 2-mesyl-4-trifluoromethylphenyl ketone). These two compounds were tested against the overexpressed protein using both the ^14CO2 and the continuous spectrophotometric enol borate-tautomerase assays. Both compounds were added to the assay buffers in 10 μL of acetone or dimethyl sulfoxide. The I50 values (concentration inhibiting the enzyme 50%) were calculated based on the percent inhibition observed over several concentrations of the inhibitor.

[3] = storage stability of purified enzyme constructs, activity by tautomerase coupled spectrophotometric assay; assay type: physicochemical, Arabidopsis thaliana; conditions: 1 mg/mL in 20 mM bis tris-propane buffer pH 7.2, 5 mM ascorbate, 1 mM reduced glutathione, 0.1 mM ferrous ammonium sulfate, stored at 4 °C
Excerpt: Two different constructs for Arabidopsis thaliana p-hydroxyphenyl-pyruvate dioxygenase, one containing the full-length sequence, PDO-B as described in Example 5 and produced from plasmid pE24PDO-B, and one containing the truncated sequence lacking the putative chloroplast leader sequence, PDO-A as produced from plasmid pE24CP1, were both purified to the same extent using a Pharmacia phenyl Sepharose hydrophobic interaction column followed by gel filtration chromatography on Pharmacia Sephacryl 300. The two proteins were diluted to 1 mg/mL in 20 mM bis tris-propane buffer, pH 7.2 containing 5 mM ascorbate, 1 mM reduced glutathione and 0.1mM ferrous ammonium sulfate and stored in a refrigerator at 4 ° C. for up to 10 days. Aliquots were removed at various times and assayed for activity using the tautomerase coupled spectrophotometric assay. […] In addition, the activity of the full length enzyme could be restored by incubation with iron and reducing agent, reduced glutathione or ascorbate, or by dialysis against buffer containing iron and reducing agent. In contrast, the activity of the truncated enzyme could not be restored by incubation with or dialysis against buffer containing iron and reducing agent.

With `CS(=O)(=O)c1cc(C(F)(F)F)ccc1C(=O)c1cnoc1C1CC1` [isoxaflutole, 5-cyclopropylisoxazol-4-yl 2-mesyl-4-trifluoromethylphenyl ketone] the IC50 ([1]; concentration inhibiting the enzyme 50%, inhibitor added in 10 μL acetone or dimethyl sulfoxide, read-out: I50 value derived from 14CO2 assay) was 409 nM and the IC50 ([2]; concentration inhibiting the enzyme 50%, absorbance at 308 nm, read-out: I50 value derived from spectrophotometric assay) was 1040 nM.

`CS(=O)(=O)c1ccc(C(=O)C2C(=O)CCCC2=O)c(Cl)c1` [sulcotrione, 2-(2-chloro-4-methanesulfonylbenzoyl)-1,3-cyclohexanedione] showed an IC50 [1] of 43 nM and an IC50 [2] of 44 nM.

B1: PDO-B: full-length Arabidopsis thaliana p-hydroxyphenylpyruvate dioxygenase produced from plasmid pE24PDO-B (protein, UniProt P93836 1-445, looked up)
chain: MGHQNAAVSENQNHDDGAASSPGFKLVGFSKFVRKNPKSDKFKVKRFHHIEFWCGDATNVARRFSWGLGMRFSAKSDLSTGNMVHASYLLTSGDLRFLFTAPYSPSLSAGEIKPTTTASIPSFDHGSCRSFFSSHGLGVRAVAIEVEDAESAFSISVANGAIPSSPPIVLNEAVTIAEVKLYGDVVLRYVSYKAEDTEKSEFLPGFERVEDASSFPLDYGIRRLDHAVGNVPELGPALTYVAGFTGFHQFAEFTADDVGTAESGLNSAVLASNDEMVLLPINEPVHGTKRKSQIQTYLEHNEGAGLQHLALMSEDIFRTLREMRKRSSIGGFDFMPSPPPTYYQNLKKRVGDVLSDDQIKECEELGILVDRDDQGTLLQIFTKPLGDRPTIFIEIIQRVGCMMKDEEGKAYQSGGCGGFGKGNFSELFKSIEEYEKTLEAKQLVG
modifications: full-length
For B1, the “half-life for the activity” value [3] was 4 days.

From patent US20030066102A1, “Plant gene for p-hydroxyphenylpyruvate dioxygenase” (priority 1996, published 2003)
